Source: PubChem BioAssay AID248 (DTP/NCI, 2004)
“And” between values parts separate entries of the source, which are not always exact repeats. Equal values may be shown once. Inconclusive results and toxic doses are left out. Rule as the data show it: active = T/C of 150% or more; inactive = T/C below 125%.

Tested on: L1210 leukemia ip in BDF1 mice, survival T/C
Experiment: NCI In Vivo Anticancer Drug Screen. Data for tumor model L1210 Leukemia (intraperitoneal) in B6D2F1 (BDF1) mice
Conditions: endpoint: mean survival time, higher = longer survival
Outline: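 Ratio derived from survival: compound-dosed mice over vehicle-dosed mice, all bearing a transplantable tumor.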

[1] = dose: 100.0 mg/kg/injection, schedule: Q04DX003 (ip), vehicle: saline with Tween-80
[2] = dose: 200.0 mg/kg/injection, schedule: Q04DX003 (ip), vehicle: saline with Tween-80
[3] = dose: 400.0 mg/kg/injection, schedule: Q04DX003 (ip), vehicle: saline with Tween-80
[4] = dose: 100.0 mg/kg/injection, schedule: Q01DX001 (ip), vehicle: carboxymethylcellulose (CMC)
[5] = dose: 200.0 mg/kg/injection, schedule: Q01DX001 (ip), vehicle: carboxymethylcellulose (CMC)
[6] = dose: 400.0 mg/kg/injection, schedule: Q01DX001 (ip), vehicle: carboxymethylcellulose (CMC)
[7] = dose: 100.0 mg/kg/injection, schedule: Q04DX003 (ip), vehicle: saline
[8] = dose: 200.0 mg/kg/injection, schedule: Q04DX003 (ip), vehicle: saline
[9] = dose: 400.0 mg/kg/injection, schedule: Q04DX003 (ip), vehicle: saline

Measured: T/C

O=[N+]([O-])C1CC(O)CCC1SSC1CCC(O)CC1[N+](=O)[O-] (centres undefined)
inactive: dose: 100.0 mg/kg/injection, schedule: Q04DX002 (ip), vehicle: other 106 % of control | dose: 200.0 mg/kg/injection, schedule: Q04DX002 (ip), vehicle: other 103 % of control | dose: 400.0 mg/kg/injection, schedule: Q04DX002 (ip), vehicle: other 98 % of control

Nc1cccc2c1C(O)c1ccccc1-2 (centres undefined)
inactive: [1] 101 % of control | [2] 97 % of control | [3] 101 % of control

O/N=C1\c2ccccc2-c2ccc(Cl)cc21
inactive: [4] 95 % of control | [5] 111 % of control | [6] 97 % of control

C/C=C/CC1(C(C)C)C(=O)NC(=O)NC1=O
inactive: dose: 75.0 mg/kg/injection, schedule: Q01DX001 (ip), vehicle: other 103 % of control | dose: 75.0 mg/kg/injection, schedule: Q01DX001 (ip), vehicle: saline 101 % of control | dose: 150.0 mg/kg/injection, schedule: Q01DX001 (ip), vehicle: other 105 % of control | dose: 150.0 mg/kg/injection, schedule: Q01DX001 (ip), vehicle: saline 104 % of control

FC(F)(F)C(c1ccc(Cl)cc1)c1ccc(Cl)cc1
inactive: dose: 10.0 mg/kg/injection, schedule: Q01DX009 (ip), vehicle: saline with Tween-80 105 % of control | dose: 20.0 mg/kg/injection, schedule: Q01DX009 (ip), vehicle: saline with Tween-80 89 % of control | dose: 40.0 mg/kg/injection, schedule: Q01DX009 (ip), vehicle: saline with Tween-80 97 % of control | dose: 50.0 mg/kg/injection, schedule: Q01DX001 (ip), vehicle: saline 103 % of control | dose: 100.0 mg/kg/injection, schedule: Q01DX001 (ip), vehicle: saline 97 % of control | dose: 100.0 mg/kg/injection, schedule: Q01DX009 (ip), vehicle: other 97 % of control | [1] 103 % of control | dose: 200.0 mg/kg/injection, schedule: Q01DX001 (ip), vehicle: saline 97 % of control | [2] 102 % of control | dose: 400.0 mg/kg/injection, schedule: Q01DX001 (ip), vehicle: saline 103 % of control | [3] 100 % of control

CC(CC(=O)O)C(C(=O)O)C(=O)O (centres undefined)
inactive: dose: 25.0 mg/kg/injection, schedule: Q01DX009 (ip), vehicle: water 110 % of control | dose: 50.0 mg/kg/injection, schedule: Q01DX009 (ip), vehicle: water 108 % of control | dose: 100.0 mg/kg/injection, schedule: Q01DX009 (ip), vehicle: water 106 % of control | dose: 200.0 mg/kg/injection, schedule: Q01DX009 (ip), vehicle: water 101 % of control

COC(=O)C1=C(C)NC(=O)NC1c1ccccc1 (centres undefined)
inactive: [1] 105 % of control | [2] 97 % of control | [3] 100 % of control

NNc1ncccn1
inactive: dose: 5.0 mg/kg/injection, schedule: Q01DX001 (ip), vehicle: saline 102 % of control | dose: 10.0 mg/kg/injection, schedule: Q01DX001 (ip), vehicle: saline 109 % of control | dose: 20.0 mg/kg/injection, schedule: Q01DX001 (ip), vehicle: saline 113 % of control

CCCCCCCCCCCCCCCC1=NN(c2ccc([N+](=O)[O-])cc2)C(=O)C1
inactive: dose: 100.0 mg/kg/injection, schedule: Q04DX003 (ip), vehicle: Klucel (hydroxypropylcellulose) (HPC) 94 % of control | dose: 200.0 mg/kg/injection, schedule: Q04DX003 (ip), vehicle: Klucel (hydroxypropylcellulose) (HPC) 89 % of control | dose: 400.0 mg/kg/injection, schedule: Q04DX003 (ip), vehicle: Klucel (hydroxypropylcellulose) (HPC) 100 % of control

COc1ccc(C(Br)C(Br)C(=O)c2ccc3c(c2)OCO3)cc1OC (centres undefined)
inactive: [7] 92 % of control | [8] 89 % of control | [9] 98 % of control

CC(C)N=C(N)C(N)=NC(C)C
inactive: dose: 100.0 mg/kg/injection, schedule: Q01DX009 (ip), vehicle: saline 97 % of control | [7] 98 % of control | dose: 200.0 mg/kg/injection, schedule: Q01DX009 (ip), vehicle: saline 92 % of control | [8] 104 % of control | dose: 400.0 mg/kg/injection, schedule: Q01DX009 (ip), vehicle: saline 96 % of control | [9] 96 % of control

N#C/C(=C1/N=C(N)NC1=O)c1ccc(Cl)cc1
inactive: dose: 25.0 mg/kg/injection, schedule: Q01DX001 (ip), vehicle: saline with Tween-80 92 % of control | dose: 50.0 mg/kg/injection, schedule: Q01DX001 (ip), vehicle: saline with Tween-80 89 % of control | dose: 100.0 mg/kg/injection, schedule: Q01DX001 (ip), vehicle: saline with Tween-80 94 % of control

CC(C)CC(N)C(=O)CCl (centres undefined)
inactive: dose: 25.0 mg/kg/injection, schedule: Q04DX002 (ip), vehicle: Klucel (hydroxypropylcellulose) (HPC) 108 % of control | dose: 50.0 mg/kg/injection, schedule: Q04DX002 (ip), vehicle: Klucel (hydroxypropylcellulose) (HPC) 102 % of control

CSc1nc(N)c(N=Nc2ccc(S(=O)(=O)Nc3nccs3)cc2)c(=O)[nH]1
inactive: [4] 92 % of control | [5] 92 % of control | [6] 92 % of control

O=CN(O)CC(=O)O
inactive: dose: 62.5 mg/kg/injection, schedule: Q01DX010 (ip), vehicle: saline 95 % of control and 98 % of control | dose: 62.5 mg/kg/injection, schedule: Q01DX Z (ip), vehicle: saline 93 % of control | dose: 125.0 mg/kg/injection, schedule: Q01DX010 (ip), vehicle: saline 95 % of control | dose: 125.0 mg/kg/injection, schedule: Q01DX Z (ip), vehicle: saline 98 % of control | dose: 250.0 mg/kg/injection, schedule: Q01DX010 (ip), vehicle: saline 98 % of control and 106 % of control | dose: 250.0 mg/kg/injection, schedule: Q01DX Z (ip), vehicle: saline 92 % of control | dose: 500.0 mg/kg/injection, schedule: Q01DX010 (ip), vehicle: saline 96 % of control and 101 % of control | dose: 500.0 mg/kg/injection, schedule: Q01DX Z (ip), vehicle: saline 88 % of control | dose: 575.0 mg/kg/injection, schedule: Q02DX010 (ip), vehicle: other 101 % of control | dose: 860.0 mg/kg/injection, schedule: Q02DX010 (ip), vehicle: other 107 % of control | dose: 1300.0 mg/kg/injection, schedule: Q02DX010 (ip), vehicle: other 105 % of control | dose: 2000.0 mg/kg/injection, schedule: Q02DX010 (ip), vehicle: other 106 % of control | dose: 3000.0 mg/kg/injection, schedule: Q02DX010 (ip), vehicle: other 117 % of control

O=NN(CS(=O)(=O)O)c1ccccc1
inactive: [7] 98 % of control | [8] 103 % of control

C/C(=C\Cl)COC1CCCCO1 (centres undefined)
inactive: dose: 100.0 mg/kg/injection, schedule: Q01DX009 (ip), vehicle: acetone 95 % of control | dose: 100.0 mg/kg/injection, schedule: Q04DX003 (ip), vehicle: acetone 101 % of control | dose: 200.0 mg/kg/injection, schedule: Q01DX009 (ip), vehicle: acetone 95 % of control | dose: 200.0 mg/kg/injection, schedule: Q04DX003 (ip), vehicle: acetone 101 % of control | dose: 400.0 mg/kg/injection, schedule: Q04DX003 (ip), vehicle: acetone 101 % of control
